{"source": "patent US20050256152A1", "about": "“Salt of a sulfonic acid containing clopidogrel and use thereof for the production of pharmaceutical formulations” (priority 2003, published 2005)", "key": {"[1]": {"conditions": "2 ml 1N HCl, 5 hours", "method": "(§1) 4.1 The stress stability of various salts of the clopidogrel was tested under different conditions. […] The following tests were conducted:\nThen the flask is kept either at room temperature for 5 hours or at 80° C. for 5 hours.\n(§2) The result is determined by means of HPLC.\n(§3) In all cases, the HPLC measurements were carried out under the following conditions with UV detection: […]"}, "[2]": {"conditions": "for stress stability result by HPLC, alkaline: 2 ml 1N NaOH, 5 hours", "method": "as §1\nThen the flask is held either at room temperature for 5 hours or at 80° C. for 5 hours.\nas §2, §3"}, "[3]": {"conditions": "5 hours", "method": "as §1\n(§4) 50 mg of the salt concerned are weighed into a volumetric flask (100 ml) and 2 ml of 3% H2O2 added. Then the flask is kept either at room temperature for 5 hours or at 80° C. for 5 hours. After the end of each experiment and, optionally, cooling to room temperature, the mobile phase is added up to 100 ml.\nas §2, §3"}, "[4]": {"conditions": "2 ml water, 5 hours", "method": "as §1\nas §4, with “water” for “3% H2O2”\nas §2, §3"}, "[5]": {"method": "as §1\n50 mg of the salt concerned are weighed into a volumetric flask (100 ml) and held at 80° C. for 20 hours. After the end of each experiment and cooling to room temperature, the mobile phase is added up to 100 ml.\nas §2, §3"}, "[6]": {"conditions": "40 and 60° C., 75% relative humidity, 15 days, FIG. 4"}, "[7]": {"conditions": "tables 1 to 4"}, "[8]": {"conditions": "75% relative humidity"}}, "note": "Counter-ions that a name gives are not always drawn. Like-named read-outs stand apart in the source and are kept apart here.", "data": [{"molecule": "COC(=O)[C@H](c1ccccc1Cl)N1CCc2sccc2C1.O=S(=O)(O)c1ccccc1", "note": "[Clopidogrel Benzene Sulfonate (Amorphous)]", "values": [{"measurement": "stress stability result by HPLC, acidic", "setting": "[1]; 80° C.", "value": 2.36, "unit": "%"}, {"measurement": "stress stability result by HPLC, acidic", "setting": "[1]; room temperature", "value": 0.64, "unit": "%"}, {"measurement": "stress stability result by HPLC, alkaline", "setting": "[2]; 80° C.", "value": 25.04, "unit": "%"}, {"measurement": "stress stability result by HPLC, alkaline", "setting": "[2]; room temperature", "value": 0.64, "unit": "%"}, {"measurement": "stability under alkaline conditions in comparison with the hydrogen sulfate and hydrochloride salts", "setting": "[2]; alkaline conditions", "value": "considerably increased stability"}, {"measurement": "stress stability result by HPLC, oxidising", "setting": "[3]; 2 ml 3% H2O2, 80° C.", "value": 2.94, "unit": "%"}, {"measurement": "stress stability result by HPLC, oxidising", "setting": "[3]; 2 ml 3% H2O2, room temperature", "value": 0.83, "unit": "%"}, {"measurement": "stress stability result by HPLC, neutral", "setting": "[4]; 80° C.", "value": 3.01, "unit": "%"}, {"measurement": "stress stability result by HPLC, neutral", "setting": "[4]; room temperature", "value": 0.85, "unit": "%"}, {"measurement": "stress stability result by HPLC, heat", "setting": "[5]; solid salt, 80° C., 20 hours", "value": 11.52, "unit": "%"}]}, {"molecule": "COC(=O)[C@H](c1ccccc1Cl)N1CCc2sccc2C1.O=S(=O)(O)c1ccccc1", "note": "[Clopidogrel Benzene Sulfonate (Crystalline)]", "values": [{"measurement": "stress stability result by HPLC, acidic", "setting": "[1]; 80° C.", "value": 2.76, "unit": "%"}, {"measurement": "stress stability result by HPLC, acidic", "setting": "[1]; room temperature", "value": 0.14, "unit": "%"}, {"measurement": "stress stability result by HPLC, alkaline", "setting": "[2]; 80° C.", "value": 28.05, "unit": "%"}, {"measurement": "stress stability result by HPLC, alkaline", "setting": "[2]; room temperature", "value": 0.14, "unit": "%"}, {"measurement": "stress stability result by HPLC, oxidising", "setting": "[3]; 2 ml 3% H2O2, 80° C.", "value": 3.98, "unit": "%"}, {"measurement": "stress stability result by HPLC, oxidising", "setting": "[3]; 2 ml 3% H2O2, room temperature", "value": 0.13, "unit": "%"}, {"measurement": "stress stability result by HPLC, neutral", "setting": "[4]; 80° C.", "value": 4.18, "unit": "%"}, {"measurement": "stress stability result by HPLC, neutral", "setting": "[4]; room temperature", "value": 0.19, "unit": "%"}, {"measurement": "stress stability result by HPLC, heat", "setting": "[5]; solid salt, 80° C., 20 hours", "value": 4.52, "unit": "%"}, {"measurement": "stability (decrease of content), compared with hydrogen sulfate and hydrochloride", "setting": "[6]", "value": "best stability values"}, {"measurement": "stability in comparison with other salts (stress tests)", "setting": "[7]", "value": "even more stable than clopidogrel hydrogen sulfate"}]}, {"molecule": "COC(=O)[C@H](c1ccccc1Cl)N1CCc2sccc2C1", "note": "[Clopidogrel Hydrochloride, clopidogrel hydrochloride, reference compound]", "values": [{"measurement": "stress stability result by HPLC, heat", "setting": "[5]; 20 h", "value": 32.43, "unit": "%"}, {"measurement": "content after 15 days (initial value normalised to 100%)", "setting": "[8]; 40° C.", "value": 93.66, "unit": "%"}, {"measurement": "content after 15 days (initial value normalised to 100%)", "setting": "[8]; 60° C.", "value": 42.54, "unit": "%"}]}, {"molecule": "COC(=O)[C@H](c1ccccc1Cl)N1CCc2sccc2C1", "note": "[Clopidogrel Hydrogen Sulfate, clopidogrel hydrogen sulfate, reference compound]", "values": [{"measurement": "stress stability result by HPLC, heat", "setting": "[5]; 20 h", "value": 0.31, "unit": "%"}]}, {"molecule": "Clopidogrel besylate", "values": [{"measurement": "content after 15 days (initial value normalised to 100%)", "setting": "[8]; 40° C.", "value": 103.32, "unit": "%"}, {"measurement": "content after 15 days (initial value normalised to 100%)", "setting": "[8]; 60° C.", "value": 66.48, "unit": "%"}]}, {"molecule": "Clopidogrel mesylate", "values": [{"measurement": "content after 15 days (initial value normalised to 100%)", "setting": "[8]; 40° C.", "value": 97.56, "unit": "%"}, {"measurement": "content after 15 days (initial value normalised to 100%)", "setting": "[8]; 60° C.", "value": 17.11, "unit": "%"}]}]}
